Structures are written as SMILES. Counter-ions that a name gives are not always drawn. Some results are limits rather than exact numbers.

For one test, the target named is T1, Human Histamine H3 Receptor (Homo sapiens, UniProt Q9Y5N1).
T1 construct: expressed in transfected cells; host or cells: HEK293T (stably transfected; membranes prepared from the cells)
T1 sequence (Q9Y5N1 whole entry): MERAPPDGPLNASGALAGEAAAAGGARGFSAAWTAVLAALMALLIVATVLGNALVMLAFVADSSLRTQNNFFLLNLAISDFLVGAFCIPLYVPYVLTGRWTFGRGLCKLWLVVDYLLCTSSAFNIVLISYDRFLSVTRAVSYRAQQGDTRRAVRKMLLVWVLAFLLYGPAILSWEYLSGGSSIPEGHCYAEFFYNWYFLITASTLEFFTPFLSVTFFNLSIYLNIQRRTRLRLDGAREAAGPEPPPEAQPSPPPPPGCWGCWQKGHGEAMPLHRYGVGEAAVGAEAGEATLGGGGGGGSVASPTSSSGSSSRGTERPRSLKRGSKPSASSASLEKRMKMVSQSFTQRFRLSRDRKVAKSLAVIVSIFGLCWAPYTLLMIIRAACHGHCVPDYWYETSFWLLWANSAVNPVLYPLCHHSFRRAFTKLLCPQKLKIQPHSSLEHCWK
Briefly: Methyl histamine binding in human histamine H3 receptor cell line.
Settings: not given
As to the method:
Evaluation of Methyl Histamine Binding in Human Histamine H3 Receptor Cell Line
The affinity of test compounds for the histamine 3 (H3) receptor is evaluated in the following manner. […] Cells are scraped from the plate, transferred to centrifuge tubes, washed one time in PBS by centrifugation in a Sorvall RT7 Plus centrifuge (2000 rpm 10 minutes, 4° C.). The resulting pellets are stored at −80° C. until ready for use. Cells are re-suspended in buffer (50 mM Tris pH=7.5) and placed in a Dounce homogenizer, douncing ten times to homogenize cells. The homogenate is spun down by centrifugation (Sorvall RT7 Plus, 1800 rpm 10 minutes, 4° C.). The supernatant is placed in a Corex tube and spun down by centrifugation (Sorvall RC 5c Plus, 17,000 rpm 20 minutes, 4° C.). The pellet is resuspended in buffer (50 mM Tris, pH 7.5). Protein concentration (ug/ul) is determined using the Micro-BCA Protein Determination. The binding assay is set up in a 96 well microtiter plate in a total volume of 250 uL. Non-specific binding is determined in the presence of 10 uM clobenpropit. The final radioligand concentration is 1 nM. The test compound is serially diluted using the Beckman Biomek2000 to a final approximate range of 100 uM to 100 pM. Membranes are suspended in buffer, homogenized in 2 bursts of ten seconds using a Vitris mechanical homogenizer set at power setting 5. Ten μg of membranes are added to each well. Following a one hour incubation at 30° C., the reaction is terminated by the addition of ice cold buffer and rapid filtration with a Packard Filtermate Harvester through a GF/B filter pre-soaked with 1% PEI for one hour. The plate is dried for one hour at 37° C. and 60 μL Microscint Scintillant is added to each well. The CPM per well is measured on a Packard Top Count NXT. Ki values are determined in nM. […] CPM values are expressed as % specific binding and plotted vs compound concentration. A curve is fitted using a four-parameter logistic fit and the IC50 value is determined. The Ki is calculated from this using the Cheng-Prusoff equation: […]=IC50/1+(L/Kd) where L=concentration of free radioligand used in the assay, and Kd is the dissociation constant of the radioligand for the receptor. L is determined for each experiment by counting an aliquot of the diluted radioligand (corresponding to that added to each well) and the Kd has previously been determined under identical conditions for this cell line/radioligand.
For orientation: Ki means a measure of affinity in units of concentration, obtained from inhibition or displacement. The compound `O=C(NCCCl)c1ccc(-c2ccc3c(c2)CCN(CCN2CCCC2)C3=O)cc1` [Example 123, N-(2-chloroethyl)-4-[1-oxo-2-(2-pyrrolidin-1-ylethyl)-1,2,3,4-tetrahydroisoquinolin-6-yl]benzamide] showed a Ki of less than 10 nM.

The test is the same for the next values; noted with them: read-out: H3 Binding Ki.
Take `CC(C)NC(=O)c1ccc(-c2ccc3c(c2)CCN(CCN2CCC[C@H]2C)C3=O)cc1` [Example 77, N-isopropyl-4-(2-{2-[(2R)-2-methylpyrrolidin-1-yl]ethyl}-1-oxo-1,2,3,4-tetrahydroisoquinolin-6-yl)benzamide]: the Ki is less than 10 nM.

In the case of `CNC(=O)c1ccc(-c2ccc3c(c2)CCN(CCN2CCC[C@H]2C)C3=O)cc1` [Example 78, N-methyl-4-(2-{2-[(2R)-2-methylpyrrolidin-1-yl]ethyl}-1-oxo-1,2,3,4-tetrahydroisoquinolin-6-yl)benzamide], the Ki is less than 10 nM.

Consider `O=C(c1ccc(-c2ccc3c(c2)CCN(CCN2CCCC2)C3=O)cc1)N1CCCCC1` [Example 79, 6-[4-(piperidin-1-ylcarbonyl)phenyl]-2-(2-pyrrolidin-1-ylethyl)-3,4-dihydroisoquinolin-1(2H)-one], for which the inhibition constant Ki is less than 10 nM.

Consider `C[C@@H]1CCCN1CCN1CCc2cc(-c3ccc(C(=O)NC4CCCC4)cc3)ccc2C1=O` [Example 80, N-cyclopentyl-4-(2-{2-[(2R)-2-methylpyrrolidin-1-yl]ethyl}-1-oxo-1,2,3,4-tetrahydroisoquinolin-6-yl)benzamide], for which the Ki is less than 10 nM.

As to `C[C@H]1CCCN1C(=O)c1ccc(-c2ccc3c(c2)CCN(CCN2CCCC2)C3=O)cc1` [Example 81, 6-(4-{[(2S)-2-methylpyrrolidin-1-yl]carbonyl}phenyl)-2-(2-pyrrolidin-1-ylethyl)-3,4-dihydroisoquinolin-1(2H)-one], the inhibitory constant (Ki) is less than 10 nM.

Take `C[C@@H]1CCCN1C(=O)c1ccc(-c2ccc3c(c2)CCN(CCN2CCCC2)C3=O)cc1` [Example 82, 6-(4-{[(2R)-2-methylpyrrolidin-1-yl]carbonyl}phenyl)-2-(2-pyrrolidin-1-ylethyl)-3,4-dihydroisoquinolin-1(2H)-one]: the Ki is less than 10 nM.

With `CNC(=O)c1ccc(-c2ccc3c(c2)C(=O)N(CCN2CCC[C@H]2C)CC3)cc1` [Example 83, N-methyl-4-(2-{2-[(2R)-2-methylpyrrolidin-1-yl]ethyl}-1-oxo-1,2,3,4-tetrahydroiso-quinolin-7-yl)benzamide], the inhibition constant Ki is less than 10 nM.

In the case of `CCNC(=O)c1ccc(-c2ccc3c(c2)C(=O)N(CCN2CCC[C@H]2C)CC3)cc1` [Example 84, N-ethyl-4-(2-{2-[(2R)-2-methylpyrrolidin-1-yl]ethyl}-1-oxo-1,2,3,4-tetrahydroiso-quinolin-7-yl)benzamide], the inhibitory constant (Ki) is less than 10 nM.

As to `CC(C)NC(=O)c1ccc(-c2ccc3c(c2)C(=O)N(CCN2CCC[C@H]2C)CC3)cc1` [Example 85, N-isopropyl-4-(2-{2-[(2R)-2-methylpyrrolidin-1-yl]ethyl}-1-oxo-1,2,3,4-tetrahydroiso-quinolin-7-yl)benzamide], the Ki is less than 10 nM.

As to `C[C@@H]1CCCN1CCN1CCc2ccc(-c3ccc(C(=O)N4CCCC4)cc3)cc2C1=O` [Example 86, 2-{2-[(2R)-2-methylpyrrolidin-1-yl]ethyl}-7-[4-(pyrrolidin-1-ylcarbonyl)phenyl]-3,4-dihydroisoquinolin-1(2H)-one], the Ki is less than 10 nM.

Take `NC(=O)c1ccc(Oc2ccc3c(c2)CCN(CCN2CCCC2)C3=O)cc1` [Example 91, 4-{[1-oxo-2-(2-pyrrolidin-1-ylethyl)-1,2,3,4-tetrahydroisoquinolin-6-yl]oxy}benzamide]: the Ki was in the range of 10.1 to 25 nM.

On to `CN(C)C(=O)c1ccc(Oc2ccc3c(c2)CCN(CCN2CCCC2)C3=O)cc1` [Example 95, N,N-dimethyl-4-{[1-oxo-2-(2-pyrrolidin-1-ylethyl)-1,2,3,4-tetrahydroisoquinolin-6-yl]oxy}benzamide], for which the Ki was in the range of 25.1 to 50 nM.

For the compound `CCN(CC)C(=O)c1ccc(Oc2ccc3c(c2)CCN(CCN2CCCC2)C3=O)cc1` [Example 96, N,N-diethyl-4-{[1-oxo-2-(2-pyrrolidin-1-ylethyl)-1,2,3,4-tetrahydroisoquinolin-6-yl]oxy}benzamide], the inhibitory constant (Ki) lay within 25.1 to 50 nM.

Take `O=C(c1ccc(Oc2ccc3c(c2)CCN(CCN2CCCC2)C3=O)cc1)N1CCCC1` [Example 98, 6-[4-(pyrrolidin-1-ylcarbonyl)phenoxy]-2-(2-pyrrolidin-1-ylethyl)-3,4-dihydroiso-quinolin-1(2H)-one]: the inhibition constant (Ki) was less than 10 nM.

Consider `CNC(=O)c1ccc(Oc2ccc3c(c2)CCN(CCN2CCCC2)C3=O)nc1` [Example 101, N-Methyl-6-(1-oxo-2-(2-(pyrrolidin-1-yl)ethyl)-1,2,3,4-tetrahydro-isoquinolin-6-yloxy)nicotinamide hydrochloride], for which the inhibitory constant (Ki) is 25.1 to 50 nM.

As to `CON(C)C(=O)c1ccc(-c2ccc3c(c2)CCN(CCN2CCCC2)C3=O)cc1` [Example 102, N-methoxy-N-methyl-4-(1-oxo-2-(2-(pyrrolidin-1-yl)ethyl)-1,2,3,4-tetrahydroisoqui-nolin-6-yl)benzamide], the Ki was less than 10 nM.

With `O=C1c2ccc(-n3cnc4ccccc43)cc2CCN1CCN1CCCC1` [Example 108, 6-(1H-benzimidazol-1-yl)-2-(2-pyrrolidin-1-ylethyl)-3,4-dihydroisoquinolin-1(2H)-one Fumarate Salt], the Ki is less than 10 nM.

On to `O=C1c2ccc(Cn3cnc4ccccc43)cc2CN1CCN1CCCC1` [Example 112, 5-(1H-benzimidazol-1-ylmethyl)-2-(2-pyrrolidin-1-ylethyl)iso-indolin-1-one], for which the Ki fell in the range of 25.1 to 50 nM.

Take `CNC(=O)c1ccc(-c2ccc3c(c2)CN(CCN2CCC[C@H]2C)C3=O)cc1` [Example 118, N-methyl-4-(2-{2-[(2R)-2-methylpyrrolidin-1-yl]ethyl}-1-oxo-2,3-dihydro-1H-isoindol-5-yl)benzamide]: the Ki lay within 50.1 to 100 nM.

As to `C[C@@H]1CCCN1CCN1CCc2cc(OCc3ccc(C#N)cc3)ccc2C1=O` [Example 120, (R)-4-((2-(2-(2-Methylpyrrolidin-1-yl)ethyl)-1-oxo-1,2,3,4-tetra-hydroisoquinolin-6-yloxy)methyl)benzonitrile hydrochloride], the Ki is less than 10 nM.

For the compound `O=C(NCc1cccs1)c1ccc(-c2ccc3c(c2)CCN(CCN2CCCC2)C3=O)cc1` [Example 121, 4-[1-oxo-2-(2-pyrrolidin-1-ylethyl)-1,2,3,4-tetrahydroisoquinolin-6-yl]-N-(2-thienylmethyl)benzamide], the Ki is less than 10 nM.

Consider `O=C(c1ccc(-c2ccc3c(c2)CCN(CCN2CCCC2)C3=O)cc1)N1CCOCC1` [Example 122, 6-[4-(morpholin-4-ylcarbonyl)phenyl]-2-(2-pyrrolidin-1-ylethyl)-3,4-dihydroisoquinolin-1(2H)-one], for which the Ki is less than 10 nM.

On to `CCN(C)C(=O)c1ccc(-c2ccc3c(c2)CCN(CCN2CCCC2)C3=O)cc1` [Example 124, N-ethyl-N-methyl-4-[1-oxo-2-(2-pyrrolidin-1-ylethyl)-1,2,3,4-tetrahydroisoquinolin-6-yl]benzamide], for which the inhibitory constant (Ki) was less than 10 nM.

For the compound `O=C(NCc1ccco1)c1ccc(-c2ccc3c(c2)CCN(CCN2CCCC2)C3=O)cc1` [Example 125, N-(2-furylmethyl)-4-[1-oxo-2-(2-pyrrolidin-1-ylethyl)-1,2,3,4-tetrahydroisoquinolin-6-yl]benzamide], the inhibitory constant (Ki) is less than 10 nM.

Values taken from patent publication US20090069300A1, “ISOQUINOLINYL AND ISOINDOLINYL DERIVATIVES AS HISTAMINE-3 ANTAGONISTS” (Wyeth, priority 2007, published 2009).
